# Patent US20240425479A1, “HALO-SUBSTITUTED AMINO AZA-HETEROARYL COMPOUNDS AS INHIBITORS OF THE HAEMATOPOIETIC PROGENITOR KINASE 1 (HPK1)” (priority 2021, published 2024)
# Molecular target: T1, Recombinant (1-346) HPK1 (h) (Homo sapiens, UniProt Q92918)
# T1 construct: Recombinant (1-346) HPK1 (h) is incubated with 8 mM MOPS pH 7.0
# T1 sequence (Q92918 1-346): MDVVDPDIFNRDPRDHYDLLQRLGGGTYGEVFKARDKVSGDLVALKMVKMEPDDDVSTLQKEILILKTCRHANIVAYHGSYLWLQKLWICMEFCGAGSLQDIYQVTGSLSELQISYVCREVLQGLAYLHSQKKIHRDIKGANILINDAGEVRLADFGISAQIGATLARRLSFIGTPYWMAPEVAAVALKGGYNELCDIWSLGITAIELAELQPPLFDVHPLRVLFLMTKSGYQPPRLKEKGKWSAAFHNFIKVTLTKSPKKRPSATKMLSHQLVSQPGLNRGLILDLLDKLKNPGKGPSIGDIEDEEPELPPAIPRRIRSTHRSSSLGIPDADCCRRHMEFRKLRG
# Assay: HPK1 human STE kinase enzymatic radiometric assay
# Type: biochemical
# Settings: read-out: HPK1 IC50 nM Range
# How it was run: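 Recombinant HPK1 (1-346) incubated 40 min at RT with 0.33 mg/mL myelin basic protein and [gamma-33P]-ATP in 8 mM MOPS pH 7.0, 0.2 mM EDTA, 10 mM Mg acetate; reaction started with Mg/ATP. Stopped with 0.5% phosphoric acid, spotted on P30 filtermat, washed, scintillation counted. Compounds tested as 9-point 3-fold dilutions.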
row,Structure (SMILES),IC50
1,"CN(C)Cc1cc(-c2nc(-c3ccc4c(c3)CCNC4=O)c(N)nc2F)cnc1N1CCOCC1 [Example I-237, 6-(3-amino-6-(5-((dimethylamino)methyl)-6-morpholinopyridin-3-yl)-5-fluoropyrazin-2-yl)-3,4-dihydroisoquinolin-1(2H)-one]",11 to 100 nM
2,CN(C)Cc1c(N2CCOCC2)ccc(-c2nc(-c3ccc4c(c3)CCNC4=O)c(N)nc2F)c1F [Example I-240],11 to 100 nM
3,"CN(C)Cc1c(N2CCOCC2)ccc(-c2nc(-c3cc4c(cc3F)C(=O)NCC4)c(N)nc2F)c1F [Example I-241, 6-(3-amino-6-(3-((dimethylamino)methyl)-2-fluoro-4-morpholinophenyl)-5-fluoropyrazin-2-yl)-7-fluoro-3,4-dihydroisoquinolin-1(2H)-one]",11 to 100 nM
4,"CN(C)Cc1c(N2CCOCC2)ccc(-c2nc(-c3cc(F)c4c(c3)CCNC4=O)c(N)nc2F)c1F [Example I-242, 6-(3-amino-6-(3-((dimethylamino)methyl)-2-fluoro-4-morpholinophenyl)-5-fluoropyrazin-2-yl)-8-fluoro-3,4-dihydroisoquinolin-1(2H)-one]",11 to 100 nM
5,"Nc1nc(F)c(-c2ccc(N3CCOCC3)c(CN3CCC3)c2F)nc1-c1ccc2c(c1)CCNC2=O [Example I-243, 6-(3-amino-6-(3-(azetidin-1-ylmethyl)-2-fluoro-4-morpholinophenyl)-5-fluoropyrazin-2-yl)-3,4-dihydroisoquinolin-1(2H)-one]",11 to 100 nM
6,"Nc1nc(F)c(-c2ccc(N3CCOCC3)c(CN3CCC3)c2F)nc1-c1cc2c(cc1F)C(=O)NCC2 [Example I-244, 6-(3-amino-6-(3-(azetidin-1-ylmethyl)-2-fluoro-4-morpholinophenyl)-5-fluoropyrazin-2-yl)-7-fluoro-3,4-dihydroisoquinolin-1(2H)-one]",11 to 100 nM

# Now from value to molecule:
row,IC50,Structure (SMILES)
1,0.1 to 10 nM,"C[C@@H]1CCCN1Cc1cc(-c2nc(-c3ccc4c(c3)C(F)(F)CNC4=O)c(N)nc2F)ccc1C1CCOCC1 [Example I-232, (R)-6-(3-amino-5-fluoro-6-(3-((2-methylpyrrolidin-1-yl)methyl)-4-(tetrahydro-2H-pyran-4-yl)phenyl)pyrazin-2-yl)-4,4-difluoro-3,4-dihydroisoquinolin-1(2H)-one]"
2,0.1 to 10 nM,"C[C@H]1CCCN1Cc1cc(-c2nc(-c3ccc4c(c3)C(F)(F)CNC4=O)c(N)nc2F)ccc1C1CCOCC1 [Example I-233, (S)-6-(3-amino-5-fluoro-6-(3-((2-methylpyrrolidin-1-yl)methyl)-4-(tetrahydro-2H-pyran-4-yl)phenyl)pyrazin-2-yl)-4,4-difluoro-3,4-dihydroisoquinolin-1(2H)-one]"
3,0.1 to 10 nM,"Cc1c[nH]c(=O)c2cc(F)c(-c3nc(-c4ccc(N5CCN(C(C)C)CC5)cc4)c(F)nc3N)cc12 [Example I-234, 6-(3-amino-5-fluoro-6-(4-(4-isopropylpiperazin-1-yl)phenyl)pyrazin-2-yl)-7-fluoro-4-methylisoquinolin-1(2H)-one]"
4,0.1 to 10 nM,"Cc1c[nH]c(=O)c2cc(F)c(-c3nc(-c4ccc(C5CCOCC5)c(CN(C)C)c4)c(F)nc3N)cc12 [Example I-235, 6-(3-amino-6-(3-((dimethylamino)methyl)-4-(tetrahydro-2H-pyran-4-yl)phenyl)-5-fluoropyrazin-2-yl)-7-fluoro-4-methylisoquinolin-1(2H)-one]"
5,11 to 100 nM,"Cc1c[nH]c(=O)c2ccc(-c3nc(-c4cnc(N5CCOCC5)c(CN(C)C)c4)c(F)nc3N)cc12 [Example I-236, 6-(3-amino-6-(5-((dimethylamino)methyl)-6-morpholinopyridin-3-yl)-5-fluoropyrazin-2-yl)-4-methylisoquinolin-1(2H)-one]"
6,0.1 to 10 nM,"CCN(C)Cc1cc(-c2nc(-c3ccc4c(=O)[nH]cc(C)c4c3)c(N)nc2F)ccc1C1CCOCC1 [Example I-239, 6-(3-amino-6-(3-((ethyl(methyl)amino)methyl)-4-(tetrahydro-2H-pyran-4-yl)phenyl)-5-fluoropyrazin-2-yl)-4-methylisoquinolin-1(2H)-one]"
